Patent publication EP4119547A1, “TRIAZOLE COMPOUNDS FOR THE CONTROL OF INVERTEBRATE PESTS” (priority 2021, dated 2023)

Legend:
Format in all cases: in vivo
[1] = test system: Yellow fever mosquito (Aedes aegypti); test: whole plant or invertebrate; conditions: 48 h, larval mortality, 2 days, read-out: mortality in comparison with untreated controls
Description: For evaluating control of yellow fever mosquito (Aedes aegypti) the test unit consisted of 96-well-microtiter plates containing 200µl of tap water per well and 5-15 freshly hatched A. aegypti larvae.
The active compounds were formulated using a solution containing 75% (v/v) water and 25% (v/v) DMSO. Different concentrations of formulated compounds or mixtures were sprayed onto the insect diet at 2.5µl, using a custom-built micro atomizer, at two replications.
After application, microtiter plates were incubated at 28 ± 1°C, 80 ± 5 % RH for 2 days. Larval mortality was then visually assessed.

[2] = test system: Tobacco budworm (Heliothis virescens); test: Tobacco budworm test, insect diet with eggs in 96-well microtiter plates; conditions: 120 h, egg and larval mortality, 5 days, read-out: mortality in comparison with untreated controls
Description: For evaluating control of tobacco budworm (Heliothis virescens), the test unit consisted of 96-well-microtiter plates containing an insect diet and 15-25 H. virescens eggs.
The compounds were formulated using a solution containing 75% v/v water and 25% v/v DMSO. Different concentrations of formulated compounds were sprayed onto the insect diet at 10 µl, using a custom-built micro atomizer, at two replications.
After application, microtiter plates were incubated at about 28 ± 1°C and about 80 ± 5 % relative humidity for 5 days. Egg and larval mortality was then visually assessed.

[3] = test system: Green Peach Aphid (Myzus persicae); test: Green peach aphid systemic test, artificial diet under membrane in 96-well microtiter plates; conditions: 72 h, adult aphids on treated artificial diet, 3 days, read-out: mortality in comparison with untreated controls
Description: For evaluating control of green peach aphid (Myzus persicae) through systemic means, the test unit consisted of 96-well-microtiter plates containing liquid artificial diet under an artificial mem brane.
The compounds were formulated using a solution containing 75% v/v water and 25% v/v DMSO. Different concentrations of formulated compounds were pipetted into the aphid diet, using a custom built pipetter, at two replications.
After application, 5 - 8 adult aphids were placed on the artificial membrane inside the microtiter plate wells. The aphids were then allowed to suck on the treated aphid diet and incubated at about 23 ± 1°C and about 50 ± 5 % relative humidity for 3 days. Aphid mortality and fecundity was then visually assessed.

[4] = test system: Diamond back moth (Plutella xylostella); test: Diamond back moth leaf-dip test on cabbage leaves; conditions: cabbage leaves dipped, 3rd instar larvae, 72 hours after treatment, read-out: mortality in comparison with untreated controls
Description: The active compound was dissolved at the desired concentration in a mixture of 1:1 (vol:vol) distilled water: acetone. Surfactant (Kinetic HV) was added at a rate of 0.01% (vol/vol). The test solution was prepared on the day of use.
Leaves of cabbage were dipped in test solution and air-dried. Treated leaves were placed in petri dishes lined with moist filter paper and inoculated with ten 3rd instar larvae. Mortality was recorded 72 hours after treatment. Feeding damages were also recorded using a scale of 0-100%.

[5] = test system: Orchid thrips (Dichromothrips corbetti); test: Orchid thrips floral-immersion test; conditions: adult thrips on dipped orchid petals, 72 hours after treatment, read-out: mortality in comparison with untreated controls
Description: Dichromothrips corbetti adults used for bioassay were obtained from a colony maintained continuously under laboratory conditions. For testing purposes, the test compound is diluted in a 1:1 mixture of acetone:water (vol:vol), plus Kinetic HV at a rate of 0.01% v/v.
Thrips control potency of each compound was evaluated by using a floral-immersion technique. All petals of individual, intact orchid flowers were dipped into treatment solution and allowed to dry in Petri dishes. Treated petals were placed into individual re-sealable plastic along with about 20 adult thrips. All test arenas were held under continuous light and a temperature of about 28°C for duration of the assay. After 3 days, the numbers of live thrips were counted on each petal. The percent mortality was recorded 72 hours after treatment.

[6] = test system: Boll weevil (Anthonomus grandis); test: Boll weevil test, insect diet with eggs in 96-well microtiter plates; conditions: 120 h, egg and larval mortality, 5 days, read-out: mortality in comparison with untreated controls
Description: For evaluating control of boll weevil (Anthonomus grandis), the test unit consisted of 96-well-microtiter plates containing an insect diet and 5-10 A. grandis eggs.
The compounds were formulated using a solution containing 75% v/v water and 25% v/v DMSO. Different concentrations of formulated compounds were sprayed onto the insect diet at 5 µl, using a custom-built micro atomizer, at two replications.
After application, microtiter plates were incubated at about 25 ± 1°C and about 75 ± 5 % relative humidity for 5 days. Egg and larval mortality was then visually assessed.

CC(=NO)n1ncnc1C(C)NC(=O)c1cc(C(F)(F)F)cc(C(F)(F)F)c1 (stereo not shown) [I-1, N-[1-[2-[N-hydroxy-C-methyl-carbonimidoyl]-1,2,4-triazol-3-yl]ethyl]-3,5-bis(trifluoromethyl)benzamide]
≥ 75%: mortality at 2500 ppm [1] | mortality at 2500 ppm [2] | mortality at 2500 ppm [3] | mortality at 300 ppm [4]

CO/N=C(/C)n1ncnc1C(C)NC(=O)c1cc(C(F)(F)F)cc(C(F)(F)F)c1 (stereo not shown) [I-3, N-[1-[2-[(Z)-N-methoxy-C-methyl-carbonimidoyl]-1,2,4-triazol-3-yl]ethyl]-3,5-bis(trifluoromethyl)benzamide]
≥ 75%: mortality at 2500 ppm [1] | mortality at 2500 ppm [2] | mortality at 2500 ppm [3] | mortality at 300 ppm [4] | mortality at 300 ppm [5] | mortality at 2500 ppm [6]

CO/N=C(\C)n1ncnc1C(C)NC(=O)c1cc(C(F)(F)F)cc(C(F)(F)F)c1 (stereo not shown) [I-4, N-[1-[2-[(E)-N-methoxy-C-methyl-carbonimidoyl]-1,2,4-triazol-3-yl]ethyl]-3,5-bis(trifluoromethyl)benzamide]
≥ 75%: mortality at 2500 ppm [1] | mortality at 2500 ppm [2] | mortality at 2500 ppm [3] | mortality at 300 ppm [4] | mortality at 300 ppm [5] | mortality at 2500 ppm [6]
